Experimental data as given in patent publication US7449301B2, “Pharmaceutical composition and method for activating macrophage using the same” (National University Corporation Gunma University, priority 2004, dated 2008).

Key:
Assay type in all cases: cell-based, mouse
MAPK = assay: Immunoblot of activated (phosphorylated) MAPK in PEMs; settings: 50 μM PD98059 or 2 μM U0126, FIG. 2B, C bottom
Method: PEMs were treated with anti-SIRPβ antibody or control IgG, and a secondary antibody, and incubated at 37° C. for 10 min. As a positive control, PEMs were incubated at 37° C. for 10 min in the presence of M-CSF (macrophage colony stimulating factor) (10 ng/ml). As a negative control, non-treated PEMs were used. Then, cells were lysed and subjected to immunoblot analysis using an anti-MAPK antibody (αMAPK), anti-activated (phosphorylated) MAPK antibody (αpMAPK), anti-MEK antibody (αMEK) or anti-activated MEK antibody (αpMEK) (FIG. 2A).
Then, the MEK inhibitors, PD98059 and U0126 were used to examine the role of MAPK-MEK pathway in the macrophage activation by an anti-SIRPβ antibody. PEMs were incubated in the presence or absence of 50 μM PD98059 or 2 μM U0126 at 37° C. for 30 min, and then treated with an anti-SIRPβ antibody or control IgG, and a secondary antibody. After incubation with IgG-opsonized RBCs at 37° C. for 5 min, cells were fixed and phagocytosis index was calculated (FIG. 2B, C; upper figures). On the other hand, PEMs were treated with an anti-SIRPβ antibody or control IgG, and a secondary antibody in the presence or absence of the inhibitors, followed by an analysis using an anti-MAPK antibody (αMAPK) and an anti-activated (phosphorylated) MAPK antibody (αpMAPK) (FIG. 2B, C; bottom figures). […]

PEMs = assay: Immunocytofluorescence of PEMs (morphology, F-actin, activated MAPK); settings: PEMs treated with mAb80 in presence of inhibitor; FIG. 4B
Method: PEMs treated with rat IgG, mAb80 or mAb84 were fixed for 20 to 30 min at room temperature in PBS containing 4% paraformaldehyde and 0.1% glutaraldehyde, and were then permeabilized for 60 min at room temperature in PBS containing 0.1% Triton X-100 and 5% goat serum (blocking solution). After incubation for 1 h at room temperature or overnight at 4° C. with primary antibody (anti-activated MAPK antibody) diluted in blocking solution, the cells were washed with PBS and incubated for 1 h at room temperature with Alexa488-conjugated secondary antibodies (Molecular Probes) diluted in blocking solution. For visualization of F-actin, cells were incubated with rhodamine-conjugated phalloidin (Molecular Probes) together with the secondary antibodies. The cells were finally washed with PBS and mounted. Fluorescence images were acquired with a laser-scanning confocal microscope (LSM5 PASCAL, Zeiss) (FIG. 4).

[1] = tested on: peritoneal macrophages (PEMs); assay: Phagocytosis assay of PEMs with RBCs (phagocytosis index); settings: PEMs preincubated 30 min with ML-7 10 μM or BDM 50 mM; IgG-opsonized RBCs 5 min; FIG. 3

Compound	activation of MAPK by mAb80 and mAb84 in the presence of MEK inhibitor (MAPK)	effect of inhibitor on morphological change of PEMs induced by anti-SIRPβ antibody (PEMs)	effect of inhibitor on anti-SIRPβ antibody activation of macrophage-mediated phagocytosis [1]
COc1cccc(-c2cc(=O)c3ccccc3o2)c1N [PD98059]	did not occur	markedly inhibited	
N#CC(=C(/N)Sc1ccccc1N)/C(C#N)=C(\N)Sc1ccccc1N [U0126]	did not occur		
CC(=O)C(C)=NO [BDM, 2,3-butanedione 2-monoxime]			attenuated the activation of macrophages-mediated phagocytosis
O=S(=O)(c1cccc2c(I)cccc12)N1CCCNCC1 [ML-7]		markedly inhibited	attenuated the activation of macrophages-mediated phagocytosis
